The target in the first test is Human KLKB1 (Homo sapiens (Human), UniProt P03952). The test is described as follows: KLKB1 kallikrein activity inhibition assay (chromogenic substrate S-2302). It is filed as biochemical.
Human KLKB1, sequence (P03952 391-638 limits assumed): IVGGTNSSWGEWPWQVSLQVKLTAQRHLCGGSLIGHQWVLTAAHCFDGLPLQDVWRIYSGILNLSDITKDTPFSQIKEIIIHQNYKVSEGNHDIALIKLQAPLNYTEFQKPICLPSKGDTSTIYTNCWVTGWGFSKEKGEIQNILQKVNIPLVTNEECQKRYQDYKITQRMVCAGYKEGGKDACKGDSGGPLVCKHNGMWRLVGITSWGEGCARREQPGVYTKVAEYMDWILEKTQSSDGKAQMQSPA
Human KLKB1, sequence (P03952 20-390 partner limits assumed): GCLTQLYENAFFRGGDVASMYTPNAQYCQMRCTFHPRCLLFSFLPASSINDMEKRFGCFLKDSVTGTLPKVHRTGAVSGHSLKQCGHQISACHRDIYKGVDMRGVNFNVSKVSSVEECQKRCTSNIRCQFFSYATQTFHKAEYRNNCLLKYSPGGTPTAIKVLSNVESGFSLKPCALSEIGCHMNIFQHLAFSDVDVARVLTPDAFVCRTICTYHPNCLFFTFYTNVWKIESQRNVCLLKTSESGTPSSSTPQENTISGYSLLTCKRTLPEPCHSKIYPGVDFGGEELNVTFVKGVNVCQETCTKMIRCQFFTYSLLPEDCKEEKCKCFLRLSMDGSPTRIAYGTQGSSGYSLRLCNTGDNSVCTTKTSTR
Conditions: not given
As to the method: The KLKB1 kallikrein activity reported herein (e.g., Tables B, C, and D) was obtained as follows. Human KLKB1 protein was obtained from Enzyme Research Labs. […] KLKB1 was assayed in buffer containing 0.05 M Tris (pH 7.4), 0.01 M NaCl and 0.2% w/v PEG-8000. The final concentration of enzyme used was 3 nM KLKB1. […] All assays were performed in 96-well microtiter plates at room temperature (RT). […] Inhibitor IC50 values were determined by adding test compound as ten point, three-fold serial dilutions in buffer solution, as known in the art. The plate was read at 10 minutes after substrate addition. The IC50 was calculated by plotting the percent (%) inhibition against compound concentration and fitting the data to a constrained four parameter sigmoidal curve, as known in the art.
As a reminder, the IC50 is the midpoint of a concentration-inhibition curve. Low readings indicate higher potency, high ones lower potency. For `COC(=O)c1n[nH]c(NC(=O)c2ccc(C)cc2)n1` [Cmpd 408, methyl 5-[(4-methylbenzene)amido]-1H-1,2,4-triazole-3-carboxylate], the IC50 was more than 100 µM.

The same test, now with this note: 3 nM KLKB1, 250 μM S-2302, 10 min pre-incubation, RT.
Compound `O=C(NCc1ccc2[nH]cc(Cl)c2c1)[C@@H]1CC(=O)N(Cc2ccc(Cl)cc2)C1` [Cmpd 414, (3R)-N-[(3-chloro-1H-indol-5-yl)methyl]-1-[(4-chlorophenyl)methyl]-5-oxopyrrolidine-3-carboxamide] returned an IC50 of more than 100 µM. On the same count and under the same terms, as for `O=C(NCc1ccc2[nH]cc(Cl)c2c1)[C@H]1CC(=O)N(Cc2ccccc2)C1` [Cmpd 415, (3S)-1-benzyl-N-[(3-chloro-1H-indol-5-yl)methyl]-5-oxopyrrolidine-3-carboxamide], the figure is more than 100 µM. The same measure, in the same setting: the result for `Cn1cc(Cl)c2cc(CNC(=O)[C@H]3CC(=O)N(Cc4ccc(Cl)cc4)C3)ccc21` [Cmpd 416, (3S)-N-[(3-chloro-1-methyl-1H-indol-5-yl)methyl]-1-[(4-chlorophenyl)methyl]-5-oxopyrrolidine-3-carboxamide] reads 10 to 100 µM. Compound `O=C(NCc1ccc2[nH]cc(Cl)c2c1)[C@H]1CC(=O)N(Cc2ccccc2Cl)C1` [Cmpd 417, (3S)-N-[(3-chloro-1H-indol-5-yl)methyl]-1-[(2-chlorophenyl)methyl]-5-oxopyrrolidine-3-carboxamide] yielded an IC50 of 10 to 100 µM. The compound `O=C(NCc1ccc2[nH]cc(Cl)c2c1)[C@H]1CC(=O)N(Cc2cccc(Cl)c2)C1` [Cmpd 418, (3S)-N-[(3-chloro-1H-indol-5-yl)methyl]-1-[(3-chlorophenyl)methyl]-5-oxopyrrolidine-3-carboxamide] displayed an IC50 of more than 100 µM. The same measure, in the same setting: as for `Cc1cc(N(C)c2ccccc2F)nc(N[C@@H]2CCc3c(N)cccc3C2)n1` [Cmpd 419, 2-N-[(2R)-5-amino-1,2,3,4-tetrahydronaphthalen-2-yl]-4-N-(2-fluorophenyl)-4-N,6-dimethylpyrimidine-2,4-diamine], the figure is more than 100 µM.

Turning to `Cc1cc(N(C)c2cccc(F)c2)nc(N[C@@H]2CCc3c(N)cccc3C2)n1` [Cmpd 420, 2-N-[(2R)-5-amino-1,2,3,4-tetrahydronaphthalen-2-yl]-4-N-(3-fluorophenyl)-4-N,6-dimethylpyrimidine-2,4-diamine], the IC50 is more than 100 µM.

Turning to `Cc1cc(N(C)c2ccc(F)cc2)nc(N[C@@H]2CCc3c(N)cccc3C2)n1` [Cmpd 421, 2-N-[(2R)-5-amino-1,2,3,4-tetrahydronaphthalen-2-yl]-4-N-(4-fluorophenyl)-4-N,6-dimethylpyrimidine-2,4-diamine], the IC50 is more than 100 µM. Still for that read-out and setting: the result for `Cc1cc(N(C)c2ccccc2)nc(N[C@H]2CCc3c(N)cccc3C2)n1` [Cmpd 422, 2-N-[(2S)-5-amino-1,2,3,4-tetrahydronaphthalen-2-yl]-4-N,6-dimethyl-4-N-phenylpyrimidine-2,4-diamine] reads more than 100 µM; that for `Cc1cc(N(C)c2ccccc2Cl)nc(N[C@H]2CCc3c(N)cccc3C2)n1` [Cmpd 423, 2-N-[(2S)-5-amino-1,2,3,4-tetrahydronaphthalen-2-yl]-4-N-(2-chlorophenyl)-4-N,6-dimethylpyrimidine-2,4-diamine], 10 to 100 µM; that for `Cc1cc(N(C)c2cccc(Cl)c2)nc(N[C@H]2CCc3c(N)cccc3C2)n1` [Cmpd 424, 2-N-[(2S)-5-amino-1,2,3,4-tetrahydronaphthalen-2-yl]-4-N-(3-chlorophenyl)-4-N,6-dimethylpyrimidine-2,4-diamine], more than 100 µM.

Still in this test, the particulars now being: Table C.
As to `O=C(Cc1ccccc1)n1nc(-c2ccncc2)nc1NCc1ccccc1` [Cmpd 352], the concentration for half-maximal inhibition (IC50) is more than 100 µM.

For the compound `CC(C)CC(=O)n1nc(-c2ccncc2)nc1NCc1ccccc1` [Cmpd 353], the IC50 is more than 100 µM. Still for that read-out and setting: as for `O=C(CCc1ccccc1)n1nc(-c2ccncc2)nc1NCc1ccccc1` [Cmpd 354], the figure is more than 100 µM. Same read-out and setting: as for `CCCC(=O)n1nc(-c2ccncc2)nc1NCc1ccccc1` [Cmpd 355], the figure is more than 100 µM; as for `CCC(=O)n1nc(-c2ccncc2)nc1NCc1ccccc1` [Cmpd 356], more than 100 µM; as for `CC(C)(C)C(=O)n1nc(-c2cccs2)nc1NCc1ccccc1` [Cmpd 357], more than 100 µM. In the case of `O=C(c1ccccc1)n1nc(-c2cccnc2)nc1NCc1ccc(F)cc1` [Cmpd 359], the IC50 lay within 0.1 to 1 µM. `O=C(c1ccccc1)n1nc(-c2ccncc2)nc1NCc1ccccc1` [Cmpd 363] registered an IC50 of 0.1 to 1 µM. Still for that read-out and setting: as for `COc1ccccc1C(=O)n1nc(C2CN(S(=O)(=O)N(C)C)C2)nc1NCc1ccc(Cl)s1` [Cmpd 364], the figure is less than 0.1 µM; as for `O=C(c1cccnc1)n1nc(-c2cccnc2)nc1NCc1cccs1` [Cmpd 365], 1 to 10 µM; as for `COc1ccccc1C(=O)n1nc(-c2ccccn2)nc1NCc1ccc(F)cc1` [Cmpd 367], 1 to 10 µM. Compound `COc1ccccc1C(=O)n1nc(-c2cccnc2)nc1NCc1ccc(F)cc1` [Cmpd 368] had an IC50 of 1 to 10 µM. Still for that read-out and setting: as for `O=C(c1ccco1)n1nc(-c2ccccn2)nc1NCc1ccc(F)cc1` [Cmpd 369], the figure is 1 to 10 µM; as for `O=C(c1ccco1)n1nc(-c2cccnc2)nc1NCc1ccc(F)cc1` [Cmpd 370], 1 to 10 µM; as for `O=C(c1ccoc1)n1nc(-c2ccccn2)nc1NCc1ccc(F)cc1` [Cmpd 371], 1 to 10 µM. Still for that read-out and setting: as for `O=C(c1ccoc1)n1nc(-c2cccnc2)nc1NCc1ccc(F)cc1` [Cmpd 372], the figure is 1 to 10 µM.

In turn, `O=C(c1ccoc1)n1nc(-c2ccncc2)nc1NCc1ccc(F)cc1` [Cmpd 373] returned an IC50 of more than 100 µM. Still for that read-out and setting: the result for `CCCn1nc(-c2ccccn2)nc1NCc1ccc(F)cc1` [Cmpd 374] reads more than 100 µM. `O=C(c1ccsc1)n1nc(-c2ccccn2)nc1NCc1ccc(F)cc1` [Cmpd 375] displayed an IC50 of 0.1 to 1 µM. Same read-out and setting: the result for `O=C(c1cccs1)n1nc(-c2cccnc2)nc1NCc1ccc(F)cc1` [Cmpd 376] reads 1 to 10 µM; that for `O=C(c1ccsc1)n1nc(-c2cccnc2)nc1NCc1ccc(F)cc1` [Cmpd 377], 0.1 to 1 µM; that for `O=C(c1cccs1)n1nc(-c2ccncc2)nc1NCc1ccc(F)cc1` [Cmpd 378], more than 100 µM.

`COc1ccc(CNc2nc(-c3ccccn3)nn2C(=O)c2cccs2)cc1` [Cmpd 379] returned a concentration for half-maximal inhibition (IC50) of more than 100 µM. On the same count and under the same terms, as for `COc1ccc(CNc2nc(-c3ccccn3)nn2C(=O)c2ccsc2)cc1` [Cmpd 380], the figure is 1 to 10 µM; as for `COc1ccc(CNc2nc(-c3cccnc3)nn2C(=O)c2cccs2)cc1` [Cmpd 381], more than 100 µM. The compound `COc1ccc(CNc2nc(-c3cccnc3)nn2C(=O)c2ccsc2)cc1` [Cmpd 382] showed an IC50 of 1 to 10 µM. Same read-out and setting: the result for `COc1ccccc1C(=O)n1nc(-c2ccccc2)nc1NCc1ccc(Cl)o1` [Cmpd 383] reads more than 100 µM. In turn, `COc1ccccc1C(=O)n1nc(C2CCOCC2)nc1NCc1ccc(Cl)s1` [Cmpd 385] registered an IC50 of 0.1 to 1 µM. On the same count and under the same terms, as for `COc1ccccc1C(=O)n1nc(C2CCCO2)nc1NCc1ccc(Cl)s1` (centres unmarked) [Cmpd 386], the figure is 0.1 to 1 µM; as for `COc1ccccc1C(=O)n1nc(C2CN(S(=O)(=O)N3CCCC3)C2)nc1NCc1ccc(Cl)s1` [Cmpd 388], less than 0.1 µM. Same read-out and setting: the result for `COc1ccccc1C(=O)n1nc(-c2ccc(N3CCOCC3)cc2)nc1NCc1ccc(Cl)s1` [Cmpd 389] reads 1 to 10 µM.

As to `O=C(c1ccoc1)n1nc(C2CCCO2)nc1NCc1ccc(Cl)s1` (centres unmarked) [Cmpd 392], the 50% inhibitory concentration (IC50) fell in the range of 0.1 to 1 µM. Same read-out and setting: the result for `O=C(c1c(F)cccc1F)n1nc(-c2ccccn2)nc1NCc1ccccc1` [Cmpd 394] reads more than 100 µM; that for `O=C(c1ccccc1Cl)n1nc(-c2ccccn2)nc1NCc1ccccc1` [Cmpd 395], 0.1 to 1 µM. On the same count and under the same terms, the result for `O=C(c1ccccc1Cl)n1nc(-c2cccs2)nc1NCc1ccccc1` [Cmpd 396] reads 0.1 to 1 µM; that for `COc1ccccc1C(=O)n1nc(-c2ccccn2)nc1NCc1ccccc1` [Cmpd 397], 1 to 10 µM.

Consider `COc1ccccc1C(=O)n1nc(-c2cccs2)nc1NCc1ccccc1` [Cmpd 398], for which the IC50 was in the range of 1 to 10 µM. Still for that read-out and setting: the result for `O=C(c1ccc(Cl)cc1)n1nc(-c2ccccn2)nc1NCc1ccccc1` [Cmpd 399] reads 0.1 to 1 µM; that for `O=C(c1ccco1)n1nc(-c2ccncc2)nc1NCc1ccccc1` [Cmpd 400], 1 to 10 µM. Same read-out and setting: as for `O=C(c1ccoc1)n1nc(-c2ccccn2)nc1NCc1ccccc1` [Cmpd 401], the figure is more than 100 µM.

Regarding `O=C(c1ccoc1)n1nc(-c2ccncc2)nc1NCc1ccccc1` [Cmpd 402], the IC50 is 10 to 100 µM. Compound `COc1ccccc1C(=O)n1nc(-c2ccco2)nc1NCc1ccccc1` [Cmpd 403] gave an IC50 of 1 to 10 µM. Still for that read-out and setting: the result for `O=C(c1cccs1)n1nc(-c2ccccn2)nc1NCc1ccccc1` [Cmpd 404] reads 1 to 10 µM; that for `O=C(c1ccsc1)n1nc(-c2ccccn2)nc1NCc1ccccc1` [Cmpd 405], 10 to 100 µM; that for `O=C(c1cccs1)n1nc(-c2ccncc2)nc1NCc1ccccc1` [Cmpd 406], more than 100 µM.

For the compound `O=C(Oc1ccccc1)n1nc(-c2cccnc2)nc1NCc1ccc(F)cc1` [Cmpd 409], the IC50 was more than 100 µM. Same read-out and setting: as for `CC(C)OC(=O)n1nc(-c2cccnc2)nc1NCc1ccc(F)cc1` [Cmpd 410], the figure is more than 100 µM. Still for that read-out and setting: the result for `COc1ccccc1C(=O)n1nc(C2CN(C(=O)OC(C)(C)C)C2)nc1NCc1ccc(Cl)s1` [Cmpd 411] reads 0.1 to 1 µM; that for `COc1ccccc1C(=O)n1nc(C2CCN(C(=O)OC(C)(C)C)CC2)nc1NCc1ccc(Cl)s1` [Cmpd 412], 0.1 to 1 µM; that for `CC(C)(C)OC(=O)n1nc(-c2cccnc2)nc1NCc1ccc(F)cc1` [Cmpd 413], more than 100 µM.

The values are drawn from US9687479B2, “Multisubstituted aromatic compounds as serine protease inhibitors” (VERSEON CORPORATION, priority 2013, dated 2017).
